Assay results as given in US20100267561A1, “HERBICIDAL PYRIDAZINONE DERIVATIVES” (priority 2007, published 2010).
Where two headings read alike, the source gives them in different places.

Legend:
Format in all cases: in vivo
[1] = test system: lambsquarters (Chenopodium album); test: Test B pre-/postemergence plant response; conditions: for pest or weed control at 31 g/ha / pest or weed control at 62 g/ha: Chenopodium album, read-out: Plant response rating, Lambsquarters; for pest or weed control at 31 g/ha: 31 g ai/ha; for pest or weed control at 62 g/ha: 62 g ai/ha, 100 complete control
Outline: (§1)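 Visual scoring from 0 (no effect) to 100 (complete control) against untreated controls was done 13 to 15 days after greenhouse treatment. Chemicals were formulated in a surfactant-containing non-phytotoxic solvent and applied to soil preemergence or to 1- to 4-leaf (2-18 cm) plants postemergence.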

[2] = test system: common ragweed (Ambrosia elation); test: Test B pre-/postemergence plant response; conditions: for pest or weed control at 31 g/ha / pest or weed control at 62 g/ha: Ambrosia, read-out: Plant response rating, Ragweed; for pest or weed control at 31 g/ha: 31 g ai/ha; for pest or weed control at 62 g/ha: 62 g ai/ha, 100 complete control
Outline: as §1

[3] = test system: large crabgrass (Digitaria sanguinalis); test: Test B pre-/postemergence plant response; conditions: for pest or weed control at 31 g/ha: 31 g ai/ha; for pest or weed control at 62 g/ha: 62 g ai/ha, 100 complete control
Outline: as §1

[4] = test system: common (oilseed) sunflower (Helianthus annuus); test: Test B pre-/postemergence plant response; conditions: Preemergence; for Sunflower plant response rating: scale 0 to 100
Outline: as §1

[5] = test system: johnsongrass (Sorghum halepense); test: Test B pre-/postemergence plant response; conditions: for pest or weed control at 31 g/ha / pest or weed control at 62 g/ha: Sorghum halepense, read-out: Plant response rating, Johnsongrass; for pest or weed control at 31 g/ha: 31 g ai/ha; for pest or weed control at 62 g/ha: 62 g ai/ha, 100 complete control
Outline: as §1

[6] = test system: giant foxtail (Setaria faberii); test: Test B pre-/postemergence plant response; conditions: for pest or weed control at 31 g/ha: 31 g ai/ha; for pest or weed control at 62 g/ha: 62 g ai/ha, 100 complete control
Outline: as §1

[7] = test system: catchweed bedstraw (Galium aparine); test: Test B pre-/postemergence plant response; conditions: Preemergence; for Galium plant response rating: scale 0 to 100
Outline: as §1

[8] = test system: wheat (Triticum aestivum); test: Test B pre-/postemergence plant response; conditions: for plant injury at 31 g/ha / plant injury at 62 g/ha: Triticum aestivum, read-out: Plant response rating, Wheat; for plant injury at 31 g/ha: 31 g ai/ha; for plant injury at 62 g/ha: 62 g ai/ha, 100 complete control
Outline: as §1

[9] = test system: blackgrass (Alopecurus myosuroides); test: Test B pre-/postemergence plant response; conditions: for pest or weed control at 31 g/ha: 31 g ai/ha; for pest or weed control at 62 g/ha: 62 g ai/ha, 100 complete control
Outline: as §1

[10] = test system: goosegrass (Eleusine indica); test: Test B pre-/postemergence plant response; conditions: for pest or weed control at 31 g/ha / pest or weed control at 62 g/ha: Eleusine indica, read-out: Plant response rating, Goosegrass; for pest or weed control at 31 g/ha: 31 g ai/ha; for pest or weed control at 62 g/ha: 62 g ai/ha, 100 complete control
Outline: as §1

[11] = test system: wild oat (Avena fatua); test: Test B pre-/postemergence plant response; conditions: for pest or weed control at 31 g/ha / pest or weed control at 62 g/ha: Avena fatua, read-out: Plant response rating, Oat, Wild; for pest or weed control at 31 g/ha: 31 g ai/ha; for pest or weed control at 62 g/ha: 62 g ai/ha, 100 complete control
Outline: as §1

[12] = test system: yellow nutsedge (Cyperus esculentus); test: Test B pre-/postemergence plant response; conditions: for pest or weed control at 31 g/ha / pest or weed control at 62 g/ha: Cyperus, read-out: Plant response rating, Nutsedge, Yellow; for pest or weed control at 31 g/ha: 31 g ai/ha; for pest or weed control at 62 g/ha: 62 g ai/ha, 100 complete control
Outline: as §1

[13] = test system: cocklebur (Xanthium strumarium); test: Test B pre-/postemergence plant response; conditions: for pest or weed control at 31 g/ha: 31 g ai/ha; for pest or weed control at 62 g/ha: 62 g ai/ha, 100 complete control
Outline: as §1

[14] = test system: winter barley (Hordeum vulgare); test: Test B postemergence plant response; conditions: for Plant response rating, Barley: Postemergence, scale 0 to 100, 0 no effect, 100 complete control
Outline: (§2)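 Visual injury score from 0 (none) to 100 (complete control) versus controls, taken 13 to 15 days after treatment in the greenhouse; chemicals applied postemergence, as formulated, to plants of 1- to 4-leaf stage (2 to 18 cm tall); dash denotes no test result.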

[15] = test system: windgrass (Apera spica-venti); test: Test B postemergence plant response; conditions: for Windgrass plant response rating: postemergence, 0-100 scale; for Plant response rating, Windgrass: Postemergence
Outline: as §2

[16] = 8 g ai/ha, postemergence, 0-100 scale
[17] = 16 g ai/ha, postemergence, 0-100 scale
[18] = post-emergence, Postemergence, scale 0 to 100
[19] = post-emergence, Postemergence, scale 0 to 100, 0 no effect
[20] = pre-emergence, Preemergence, scale 0 to 100 (0 no effect, 100 complete control)
[21] = pre-emergence, Preemergence, 0 to 100 scale, 0 no effect
[22] = Preemergence, 8 g ai/ha, scale 0 to 100
[23] = Preemergence, 16 g ai/ha, scale 0 to 100

Cc1nn(C)c(=O)c(-n2nc(-c3ccc(C(F)(F)F)cc3)cc2C)c1O [Compound 75, 5-hydroxy-2,6-dimethyl-4-[5-methyl-3-[4-(trifluoromethyl)phenyl]-1H-pyrazol-1-yl]-3(2H)-pyridazinone]
Lambsquarters plant response rating [1, 16]: 0
Lambsquarters plant response rating [1, 17]: 0
pest or weed control at 31 g/ha [1, 18]: 0%
pest or weed control at 62 g/ha [1, 19]: 0%
pest or weed control at 31 g/ha [1, 20]: 0%
pest or weed control at 62 g/ha [1, 21]: 0%
Lambsquarters plant response rating [1, 22]: 0
Lambsquarters plant response rating [1, 23]: 0
Ragweed plant response rating [2, 16]: 0
Ragweed plant response rating [2, 17]: 0
pest or weed control at 31 g/ha [2, 18]: 0%
pest or weed control at 62 g/ha [2, 19]: 0%
pest or weed control at 31 g/ha [2, 20]: 0%
pest or weed control at 62 g/ha [2, 21]: 0%
Ragweed plant response rating [2, 22]: 0
Ragweed plant response rating [2, 23]: 0
Crabgrass, Large plant response rating [3, 16]: 0
pest or weed control at 16 g/ha ([3]; Digitaria sanguinalis, post-emergence, Postemergence, 16 g ai/ha, scale 0 to 100, read-out: Plant response rating, Crabgrass, Large): 0%
pest or weed control at 31 g/ha ([3]; Digitaria sanguinalis, post-emergence, Postemergence, scale 0 to 100, read-out: Plant response rating, Crabgrass, Large): 30%
pest or weed control at 62 g/ha ([3]; Digitaria sanguinalis, post-emergence, Postemergence, scale 0 to 100, 0 no effect, read-out: Plant response rating, Crabgrass, Large): 60%
pest or weed control at 31 g/ha ([3]; Digitaria sanguinalis, pre-emergence, Preemergence, scale 0 to 100 (0 no effect, 100 complete control), read-out: Plant response rating, Crabgrass, Large): 25%
pest or weed control at 62 g/ha ([3]; Digitaria sanguinalis, pre-emergence, Preemergence, 0 to 100 scale, 0 no effect, read-out: Plant response rating, Crabgrass, Large): 55%
Crabgrass, Large plant response rating [3, 22]: 0
Crabgrass, Large plant response rating [3, 23]: 0
pest or weed control at 31 g/ha ([4]; Helianthus annuus, pre-emergence, 31 g ai/ha, scale 0 to 100 (0 no effect, 100 complete control), read-out: Plant response rating, Sunflower): 0%
pest or weed control at 62 g/ha ([4]; Helianthus annuus, pre-emergence, 62 g ai/ha, 0 to 100 scale, 0 no effect, 100 complete control, read-out: Plant response rating, Sunflower): 0%
Sunflower plant response rating ([4]; 8 g ai/ha): 0
Sunflower plant response rating ([4]; 16 g ai/ha): 0
Johnsongrass plant response rating [5, 16]: 75
Johnsongrass plant response rating [5, 17]: 80
Johnsongrass plant response rating [5, 22]: 0
Johnsongrass plant response rating [5, 23]: 75
pest or weed control at 31 g/ha [5, 18]: 98%
pest or weed control at 62 g/ha [5, 19]: 100%
pest or weed control at 31 g/ha [5, 20]: 85%
pest or weed control at 62 g/ha [5, 21]: 95%
Foxtail, Giant plant response rating [6, 16]: 50
Foxtail, Giant plant response rating [6, 22]: 0
Foxtail, Giant plant response rating [6, 23]: 0
pest or weed control at 16 g/ha ([6]; Setaria faberi, post-emergence, Postemergence, 16 g ai/ha, scale 0 to 100, read-out: Plant response rating, Foxtail, Giant): 70%
pest or weed control at 31 g/ha ([6]; Setaria faberi, post-emergence, Postemergence, scale 0 to 100, read-out: Plant response rating, Foxtail, Giant): 80%
pest or weed control at 62 g/ha ([6]; Setaria faberi, post-emergence, Postemergence, scale 0 to 100, 0 no effect, read-out: Plant response rating, Foxtail, Giant): 85%
pest or weed control at 31 g/ha ([6]; Setaria faberi, pre-emergence, Preemergence, scale 0 to 100 (0 no effect, 100 complete control), read-out: Plant response rating, Foxtail, Giant): 50%
pest or weed control at 62 g/ha ([6]; Setaria faberi, pre-emergence, Preemergence, 0 to 100 scale, 0 no effect, read-out: Plant response rating, Foxtail, Giant): 95%
pest or weed control at 31 g/ha ([7]; Galium aparine, pre-emergence, 31 g ai/ha, scale 0 to 100 (0 no effect, 100 complete control), read-out: Plant response rating, Galium): 0%
pest or weed control at 62 g/ha ([7]; Galium aparine, pre-emergence, 62 g ai/ha, 0 to 100 scale, 0 no effect, 100 complete control, read-out: Plant response rating, Galium): 0%
Galium plant response rating ([7]; 8 g ai/ha): 0
Galium plant response rating ([7]; 16 g ai/ha): 0
Wheat plant response rating [8, 16]: 0
Wheat plant response rating [8, 17]: 20
Wheat plant response rating [8, 23]: 0
plant injury at 31 g/ha [8, 18]: 70%
plant injury at 62 g/ha [8, 19]: 85%
plant injury at 31 g/ha [8, 20]: 20%
plant injury at 62 g/ha [8, 21]: 45%
Blackgrass plant response rating [9, 16]: 10
pest or weed control at 16 g/ha ([9]; Alopecurus myosuroides, post-emergence, Postemergence, 16 g ai/ha, scale 0 to 100, read-out: Plant response rating, Blackgrass): 50%
pest or weed control at 31 g/ha ([9]; Alopecurus myosuroides, post-emergence, Postemergence, scale 0 to 100, read-out: Plant response rating, Blackgrass): 65%
pest or weed control at 62 g/ha ([9]; Alopecurus myosuroides, post-emergence, Postemergence, scale 0 to 100, 0 no effect, read-out: Plant response rating, Blackgrass): 95%
pest or weed control at 31 g/ha ([9]; Alopecurus myosuroides, pre-emergence, Preemergence, scale 0 to 100 (0 no effect, 100 complete control), read-out: Plant response rating, Blackgrass): 60%
pest or weed control at 62 g/ha ([9]; Alopecurus myosuroides, pre-emergence, Preemergence, 0 to 100 scale, 0 no effect, read-out: Plant response rating, Blackgrass): 90%
Blackgrass plant response rating [9, 22]: 0
Blackgrass plant response rating [9, 23]: 20
Goosegrass plant response rating [10, 16]: 30
Goosegrass plant response rating [10, 17]: 50
pest or weed control at 31 g/ha [10, 18]: 60%
pest or weed control at 62 g/ha [10, 19]: 75%
pest or weed control at 31 g/ha [10, 20]: 90%
pest or weed control at 62 g/ha [10, 21]: 98%
Goosegrass plant response rating [10, 22]: 50
Goosegrass plant response rating [10, 23]: 65
Oat, Wild plant response rating [11, 16]: 0
Oat, Wild plant response rating [11, 17]: 30
pest or weed control at 31 g/ha [11, 18]: 85%
pest or weed control at 62 g/ha [11, 19]: 98%
pest or weed control at 31 g/ha [11, 20]: 40%
pest or weed control at 62 g/ha [11, 21]: 50%
Oat, Wild plant response rating [11, 22]: 0
Oat, Wild plant response rating [11, 23]: 0
Nutsedge, Yellow plant response rating [12, 16]: 0
Nutsedge, Yellow plant response rating [12, 17]: 0
pest or weed control at 31 g/ha [12, 18]: 0%
pest or weed control at 62 g/ha [12, 19]: 0%
pest or weed control at 31 g/ha [12, 20]: 0%
pest or weed control at 62 g/ha [12, 21]: 0%
Nutsedge, Yellow plant response rating [12, 22]: 0
Nutsedge, Yellow plant response rating [12, 23]: 0
Cocklebur plant response rating [13, 16]: 0
Cocklebur plant response rating [13, 22]: 0
Cocklebur plant response rating [13, 23]: 0
pest or weed control at 16 g/ha ([13]; Xanthium strumarium, post-emergence, Postemergence, 16 g ai/ha, scale 0 to 100, read-out: Plant response rating, Cocklebur): 0%
pest or weed control at 31 g/ha ([13]; Xanthium strumarium, post-emergence, Postemergence, scale 0 to 100, read-out: Plant response rating, Cocklebur): 0%
pest or weed control at 62 g/ha ([13]; Xanthium strumarium, post-emergence, Postemergence, scale 0 to 100, 0 no effect, read-out: Plant response rating, Cocklebur): 0%
pest or weed control at 31 g/ha ([13]; Xanthium strumarium, pre-emergence, Preemergence, scale 0 to 100 (0 no effect, 100 complete control), read-out: Plant response rating, Cocklebur): 0%
pest or weed control at 62 g/ha ([13]; Xanthium strumarium, pre-emergence, Preemergence, 0 to 100 scale, 0 no effect, read-out: Plant response rating, Cocklebur): 0%
Barley plant response rating [14, 16]: 0
Plant response rating, Barley ([14]; 16 g ai/ha): 0
Plant response rating, Barley ([14]; 31 g ai/ha): 15
Plant response rating, Barley ([14]; 62 g ai/ha): 60
Windgrass plant response rating ([15]; 8 g ai/ha): 10
Windgrass plant response rating ([15]; 16 g ai/ha): 50
Plant response rating, Windgrass ([15]; 31 g ai/ha, scale 0 to 100): 70
Plant response rating, Windgrass ([15]; 62 g ai/ha, scale 0 to 100, 0 no effect, 100 complete control): 90
